Data on 5 compounds can be found in patent US6916923B2 (Hoffmann-La Roche Inc., priority 1999, dated 2005).

By melting point is commonly meant the temperature, or range, at which the solid turns liquid.

`Cc1cnc2c(cc(NS(C)(=O)=O)c3nncc32)c(-c2ccccc2Cl)n1` [Compound C9, N-(3-methyl-5-(2-chlorophenyl)-pyrazolo[3,4][1,4]benzodiazepin-7-yl)-methanesulfonamide]: the melting point lay in the range of 196 to 198 °C.
The value for `Cc1cnc2c(cc(N)c3nncc32)c(-c2ccccc2Cl)n1` [Compound C4, 3-methyl-5-(2-chlorophenyl)-7-amino-pyrazolo[3,4][1,4]benzodiazepine] was 260 to 263 °C; that for `Clc1ccccc1-c1nccnc2c1cc(Cl)c1nncc12` [Compound A4, 5-(2-chlorophenyl)-7-chloro-pyrazolo[3,4][1,4]benzodiazepine] was more than 300 °C; that for `Cc1cnc2c(cc(C(N)=O)c3nncc32)c(-c2ccccc2F)n1` [Compound C19, 3-methyl-5-(2-fluorophenyl)-pyrazolo[3,4][1,4]benzodiazepine-7-carboxamide] was 323 to 324 °C.
`N#Cc1cnc2c(cc([N+](=O)[O-])c3nncc32)c(-c2ccccc2Cl)n1` [Compound C18, 5-(2-chlorophenyl)-7-nitro-pyrazolo[3,4][1,4]benzodiazepine-3-carbonitrile]: the melting point lay within 193 to 196 °C.
